From the NIST ThermoML archive (doi:10.1021/je700245a)
Numbers after ± are expanded uncertainties.

Assay: xn = mol fraction of the nth substance listed
Conditions: 101 kPa, Liquid

CCO [ethanol] + CN(CCO)CCO
Sing-around technique in a fixed-path interferometer, x2 = 0
Conditions	speed of sound [m/s]
288.15 K	1179 ± 1.2
293.15 K	1162 ± 1.2
298.15 K	1144.9 ± 1.2
303.15 K	1128 ± 1.2
308.15 K	1111.1 ± 1.2
313.15 K	1094.3 ± 1.2

x2 = 0
Conditions	mass density [kg/m3]
288.15 K	793.6 ± 0.8
293.15 K	789.35 ± 0.8
298.15 K	785.06 ± 0.81
303.15 K	780.76 ± 0.82
308.15 K	776 ± 0.83
313.15 K	772.03 ± 0.84

CCO [ethanol] + OCCN(CCO)CCO
x2 = 0
Conditions	mass density [kg/m3]	speed of sound [m/s]
288.15 K	793.6 ± 0.8	1179 ± 20
293.15 K	789.35 ± 0.8	1162 ± 19
298.15 K	785.06 ± 0.81	1144.9 ± 19
303.15 K	780.76 ± 0.82	1128 ± 19
308.15 K	776 ± 0.83	1111.1 ± 19
313.15 K	772.03 ± 0.84	1094.3 ± 18

OCCN(CCO)CCO [triethanolamine] + CCO
Conditions	mass density [kg/m3]	speed of sound [m/s]
288.15 K, x1 = 0.0075	799.61 ± 3.3	1185.2 ± 20
288.15 K, x1 = 0.0184	808.53 ± 3.3	1193.4 ± 20
288.15 K, x1 = 0.0304	818 ± 3	1202.1 ± 20
288.15 K, x1 = 0.0622	840.61 ± 2.7	1225.5 ± 20
288.15 K, x1 = 0.1385	889.41 ± 2.4	1277 ± 21
288.15 K, x1 = 0.2275	935.37 ± 1.9	1333.2 ± 22
288.15 K, x1 = 0.335	979.49 ± 1.5	1397 ± 22
288.15 K, x1 = 0.4675	1021.75 ± 1.3	1453.1 ± 23
288.15 K, x1 = 0.6413	1064.29 ± 1.3	1528 ± 24
288.15 K, x1 = 0.779	1091.59 ± 1.4	1558.4 ± 24
288.15 K, x1 = 0.8537	1104.43 ± 1.4	1597.9 ± 25
288.15 K, x1 = 0.9328	1116.76 ± 1.5	1617.3 ± 25
288.15 K, x1 = 1	1126.19 ± 1.5	1640.5 ± 25
293.15 K, x1 = 0.0075	795.43 ± 3.4	1168.3 ± 20
293.15 K, x1 = 0.0184	804.51 ± 3.3	1176.9 ± 20
293.15 K, x1 = 0.0304	813.73 ± 3	1185.9 ± 20
293.15 K, x1 = 0.0622	836.37 ± 2.7	1210 ± 20
293.15 K, x1 = 0.1385	885.58 ± 2.4	1262.7 ± 21
293.15 K, x1 = 0.2275	931.77 ± 1.9	1320 ± 22
293.15 K, x1 = 0.335	976.06 ± 1.6	1385 ± 22
293.15 K, x1 = 0.4675	1018.53 ± 1.3	1442.5 ± 23
293.15 K, x1 = 0.6413	1061.37 ± 1.3	1516.6 ± 24
293.15 K, x1 = 0.779	1088.73 ± 1.4	1546.8 ± 24
293.15 K, x1 = 0.8537	1101.67 ± 1.4	1585.3 ± 25
293.15 K, x1 = 0.9328	1114.01 ± 1.5	1604.6 ± 25
293.15 K, x1 = 1	1123.42 ± 1.5	1625.6 ± 25
298.15 K, x1 = 0.0075	791.34 ± 3.4	1151.4 ± 20
298.15 K, x1 = 0.0184	800.35 ± 3.3	1160.4 ± 20
298.15 K, x1 = 0.0304	809.59 ± 3	1170 ± 20
298.15 K, x1 = 0.0622	832.35 ± 2.7	1194.4 ± 20
298.15 K, x1 = 0.1385	881.74 ± 2.4	1248.6 ± 21
298.15 K, x1 = 0.2275	928.14 ± 1.9	1307.1 ± 21
298.15 K, x1 = 0.335	972.67 ± 1.6	1373.1 ± 22
298.15 K, x1 = 0.4675	1015.52 ± 1.3	1431.6 ± 23
298.15 K, x1 = 0.6413	1058.61 ± 1.3	1505.9 ± 24
298.15 K, x1 = 0.779	1086.14 ± 1.4	1536.4 ± 24
298.15 K, x1 = 0.8537	1099.23 ± 1.4	1574.3 ± 25
298.15 K, x1 = 0.9328	1111.63 ± 1.5	1593.8 ± 25
298.15 K, x1 = 1	1120.99 ± 1.5	1614.5 ± 25
303.15 K, x1 = 0.0075	786.78 ± 3.5	1134.6 ± 19
303.15 K, x1 = 0.0184	796.27 ± 3.4	1143.9 ± 20
303.15 K, x1 = 0.0304	805.5 ± 3	1153.8 ± 20
303.15 K, x1 = 0.0622	828.41 ± 2.8	1178.9 ± 20
303.15 K, x1 = 0.1385	877.88 ± 2.4	1234.5 ± 20
303.15 K, x1 = 0.2275	924.44 ± 1.9	1294.3 ± 21
303.15 K, x1 = 0.335	969.17 ± 1.6	1361.4 ± 22
303.15 K, x1 = 0.4675	1012.27 ± 1.3	1420.9 ± 23
303.15 K, x1 = 0.6413	1055.67 ± 1.3	1496 ± 24
303.15 K, x1 = 0.779	1083.38 ± 1.4	1526.6 ± 24
303.15 K, x1 = 0.8537	1096.33 ± 1.4	1564.5 ± 24
303.15 K, x1 = 0.9328	1108.88 ± 1.5	1584.2 ± 25
303.15 K, x1 = 1	1118.21 ± 1.5	1604.5 ± 25
308.15 K, x1 = 0.0075	782.53 ± 3.5	1117.9 ± 19
308.15 K, x1 = 0.0184	791.61 ± 3.3	1127.4 ± 19
308.15 K, x1 = 0.0304	801.05 ± 3	1137.7 ± 19
308.15 K, x1 = 0.0622	824.11 ± 2.8	1163.4 ± 20
308.15 K, x1 = 0.1385	873.56 ± 2.4	1220.4 ± 20
308.15 K, x1 = 0.2275	920.24 ± 2	1281.5 ± 21
308.15 K, x1 = 0.335	965.2 ± 1.6	1349.9 ± 22
308.15 K, x1 = 0.4675	1008.69 ± 1.3	1410.5 ± 23
308.15 K, x1 = 0.6413	1052.55 ± 1.3	1486.6 ± 24
308.15 K, x1 = 0.779	1080.43 ± 1.4	1517.4 ± 24
308.15 K, x1 = 0.8537	1093.46 ± 1.4	1555.6 ± 24
308.15 K, x1 = 0.9328	1106.09 ± 1.5	1575.4 ± 25
308.15 K, x1 = 1	1115.38 ± 1.5	1595.5 ± 25
313.15 K, x1 = 0.0075	778.51 ± 3.5	1101.2 ± 19
313.15 K, x1 = 0.0184	787.72 ± 3.4	1111.1 ± 19
313.15 K, x1 = 0.0304	797.32 ± 3.1	1121.6 ± 19
313.15 K, x1 = 0.0622	820.47 ± 2.8	1148 ± 20
313.15 K, x1 = 0.1385	869.89 ± 2.4	1206.4 ± 20
313.15 K, x1 = 0.2275	916.68 ± 2	1268.8 ± 21
313.15 K, x1 = 0.335	961.76 ± 1.6	1338.4 ± 22
313.15 K, x1 = 0.4675	1005.44 ± 1.3	1400.1 ± 22
313.15 K, x1 = 0.6413	1049.55 ± 1.3	1477.3 ± 23
313.15 K, x1 = 0.779	1077.53 ± 1.4	1508.5 ± 24
313.15 K, x1 = 0.8537	1090.66 ± 1.4	1547 ± 24
313.15 K, x1 = 0.9328	1103.23 ± 1.5	1567.1 ± 24
313.15 K, x1 = 1	1112.57 ± 1.4	1586 ± 25
